Data published in patent US10775388B2, “Methods of using antibodies to determine periostin levels in a sample” (MEDIMMUNE, LLC, priority 2014, dated 2020).
Values joined by “and” are separate entries in the source; they are usually repeats but may differ in a detail not shown here. Identical values can stand only once.

Tests used:
[1] = test system: adults with uncontrolled, severe asthma; assay: Phase 2b study CD-RI-CAT-354-1049 of SC tralokinumab, subgroup analysis by baseline serum periostin; assay type: in vivo, human; conditions: for Asthma exacerbation rate reduction: 300 mg Q2W vs placebo
Protocol: A 5-week screening/run-in period (Week −5 to −1 [Day −1]) preceded randomisation. Starting at Week −4 (Day −28), patients received a fixed-dose combination product of fluticasone/salmeterol, either as an MDI (230 μg/21 μg) at a dose of 2 inhalations twice per day or as a DPI (500 μg/50 μg) at a dose of one inhalation twice per day. If the patient was also taking additional asthma controller medications (including leukotriene modifiers, theophylline, cromones, a secondary ICS, or oral prednisolone 20 mg/day or equivalent OCS), then these medications were to be continued at a stable dose during the screening/run-in and treatment period.
Patients were randomised in a 1:1 ratio to one of 2 cohorts (Cohort 1 or Cohort 2).

[2] = test system: EPIAIRWAY™ tissue (normal and asthmatic lung epithelium); assay: Periostin levels in IL-13 stimulated […] tissue models (sandwich ELISA); assay type: cell-based, human; conditions: stimulated with 50 ng/mL IL-13 for 48 hours
Protocol: Biotin/streptavidin-HRP-based sandwich ELISA assays were performed as follows. Specific details such as anti-periostin capture antibodies, samples to be tested, and anti-periostin detection antibodies are noted for specific experiments in the various examples Variations to standard ELISA protocols are well known to those of ordinary skill in the art, and can be used according to this disclosure.
High binding ELISA plates were coated with an anti-periostin capture mAb, e.g., 4B4.B11 (2 μg/mL in PBS; 100 μL/well), and were incubated overnight at 4° C. The plates were washed three times with 200 μL/well wash buffer (PBS/0.1% TWEEN-20®). Following washing, 200 μL/well block buffer (e.g., PBS/50× dilution of reagent diluent concentrate (available from R & D Systems)/0.05% TWEEN-20® or PBS/3% nonfat dry milk/0.1% TWEEN-20®) was added to each well, and the plates were incubated for one hour at room temperature. The plates were then washed three times as noted above.
For the standard curve, periostin standards (e.g., standards available from R & D Systems Cat #3548-F2) were serially diluted in block buffer, e.g., 2-fold dilutions from 50 ng/mL to 0.78 ng/mL. […] Finally the plates were read on a spectrophotometer at λ=450 nm. […]

[3] = test system: patients with uncontrolled asthma; conditions: above-median vs below-median baseline serum periostin; cited from earlier work
[4] = post hoc, 300 mg Q2W, FEV1 reversibility ≥12% and serum periostin < median
[5] = post hoc, 300 mg Q2W, FEV1 reversibility ≥12% and serum periostin ≥ median
[6] = post hoc, reversible patients regardless of serum periostin level

## tralokinumab: anti-IL-13 monoclonal antibody (SEQ ID NOs 8-9)
[1]; 300 mg Q2/4W, through to Week 53, periostin < median
  percent change from baseline in pre-bronchodilator FEV1 over time: No significant increases
[1]; Week 53, ITT (regardless of serum periostin level)
  Asthma exacerbation rate reduction: 7%
[1]; Week 53, baseline serum Periostin ≥ Median
  Asthma exacerbation rate reduction: 25%
[1]; 300 mg Q2W, ITT
  Change from baseline in ACQ-6: −0.18
  Change from baseline in AQLQ: 0.21
[1]; 300 mg Q2W, Periostin < Median
  Change from baseline in ACQ-6: −0.02
  Change from baseline in AQLQ: 0.21
[1]; 300 mg Q2W, Periostin ≥ Median
  Change from baseline in ACQ-6: −0.23
  Change from baseline in AQLQ: 0.22
[1]; 300 mg Q2W, Week 53, ITT (regardless of serum periostin level)
  Percent change from baseline in FEV1: 7.1%
[1]; 300 mg Q2W, Week 53, Periostin < Median
  Percent change from baseline in FEV1: 7.06%
[1]; 300 mg Q2W, Week 53, Periostin ≥ Median
  Percent change from baseline in FEV1: 6.75% and 6.8%
[1]; 300 mg Q2W, through to Week 53, periostin < median
  percent change from baseline in pre-bronchodilator FEV1 over time: No significant increases
[1]; 300 mg Q2W, through to Week 53, periostin >= median
  percent change from baseline in pre-bronchodilator FEV1 over time: Relative increases
[1]; baseline serum periostin above the median compared to below the median
  reduction in serum periostin levels: Greater reduction
[1]; [4]
  increase in FEV1: 7.62%
  reduction in AER: 4%
[1]; [5]
  percentage increase from baseline in pre-bronchodilator FEV1 compared to placebo: 13.85%
  reduction in AER: 54%
[1]; [6]
  AER reduction: 34%
  increase in FEV1: 11.07%
[1]; soon after the first dose and for the duration of the study
  serum periostin levels: substantially reduced

## IL-13: 114 amino acid cytokine used to stimulate periostin expression
[2]
  periostin levels: increase

## lebrikizumab: anti-human-IL-13 antibody (SEQ ID NOs 6-7), Roche/Genentech
[3]
  AER reduction: greater AER reduction
  increases in FEV1: larger increases
